Experimental data: patent US20260248087A1, “GENERATING DOUBLED HAPLOID PLANTS” (Syngenta Crop Protection AG, priority 2023, published 2026)

What was measured:
doubled haploids = assay: Potting rate, thiamethoxam post-treatment during germination; assay type: in vivo, maize; conditions: 14-21 days
Source text: (§1) As used herein, the term “potted rate” or “potting rate” refers to the percent of germinated embryos successfully transferred to soil from total treated haploid embryos. The “potted rate” is used as an indication of plant health in monitoring the success of recovery and growth after treatment of haploids. As used herein, the term “transplant rate” refers to the survival of healthy plants after embryos were germinated and transferred to soil.
TMX was applied to doubled haploids by adding it to the germination media during the germination process. TMX was tested in 3 genotypes, in triplicate, with concentrations ranging from […], and the post-treatments incubated for 14 to 21 days (the normal duration of the regeneration period before transplant). The effect on potting rate was evaluated (see Table 12); no plants were advanced for transplant rate assessments due to poor germination.

corn embryos = assay: Uptake of metcamifen and metabolism of colchicine in corn embryos (LCMS); assay type: in vitro ADME
Experimental: An experiment was completed to evaluate the uptake of metcamifen into corn embryos, whether colchicine is metabolized in the embryos, and if metcamifen increased the rate of colchicine metabolism. Corn embryos were co-treated with 500 ppm colchicine in the presence of 200 ppm, 1000 ppm or no metcamifen (control) for 24 or 48 hours and frozen. One biological replicate was represented by five embryos, and three biological replicates were used per co-treatment.
Prior to extraction, embryos were washed for 20 seconds in 80:20 (v/v) acetonitrile:H2O to remove any colchicine and metcamifen on the surface. Each replicate was extracted in 0.5 ml methanol using a fast prep maceration method. Then, samples were diluted 1 in 10 prior to analysis by Liquid Chromatography Mass Spectrometry (LCMS). Samples were analyzed alongside matrix matched standards of colchicine and metcamifen. Metabolite investigations were performed to identify any metabolites.

doubled haploid embryos = assay: Potting rate and root growth, metcamifen post-treatment during germination; assay type: in vivo, maize; conditions: for Potting Rate Mean: post-treatment in germination media (2.5 g/L Gelzan)
Experimental: as §1
Doubled haploid embryos were treated with metcamifen during germination. Metcamifen was tested in the germination media at 0, 5, and 10 mg/L after colchicine treatment completion for 24 or 48 hours. The germination media comprised Gelzan at a concentration of 3.5 g/L. Four genotypes were tested representing two heterotic groups. […] The percent potting rate was not increased as result of these post-treatments. […] This led to a looping of the roots. A reduction in Gelzan concentration from 3.5 g/L to 2.5 g/L was tested (comparison data not presented here). The experiments were then carried out with 2.5 g/L Gelzan for metcamifen post-treatments while the control (0 metcamifen) contained 3.5 g/L Gelzan. Metcamifen was tested as 0, 5, 10 and 20 mg/L after colchicine treatment completion for 24 and 48 hours. The reduction in Gelzan of the metcamifen post-treatments led to a higher percent potting rate (see Table 5).

| Structure (SMILES) | Potting Rate Mean (doubled haploids; TMX 0.5 g/L) | Potting Rate Mean (doubled haploids; TMX 1 g/L) | Potting Rate Mean (doubled haploids; TMX 1.5 g/L) | Potting Rate Mean (doubled haploids; TMX 5 g/L) | Potting Rate Mean (doubled haploids; TMX 12 g/L) | effect of metcamifen on amount of colchicine recovered (corn embryos; 500 ppm colchicine with 200 or 1000 ppm metcamifen) | metcamifen in embryo extracts (uptake) (corn embryos; co-treated with 500 ppm colchicine and 200 or 1000 ppm metcamifen, 24 and 48 hours) | recovery amount of colchicine metabolite (−14, O-demethylation) (corn embryos; duration and metcamifen co-treatment) | percent potting rate (doubled haploid embryos; post-treatment 5 and 10 mg/L, 3.5 g/L Gelzan, 24 or 48 hours) | Potting Rate Mean (doubled haploid embryos; 5 mg/L, Duration 24 hours) | Potting Rate Mean (doubled haploid embryos; 5 mg/L, Duration 48 hours) | Potting Rate Mean (doubled haploid embryos; 10 mg/L, Duration 24 hours) | Potting Rate Mean (doubled haploid embryos; 10 mg/L, Duration 48 hours) | Potting Rate Mean (doubled haploid embryos; 20 mg/L, Duration 24 hours) | Potting Rate Mean (doubled haploid embryos; 20 mg/L, Duration 48 hours) |
| --- | --- | --- | --- | --- | --- | --- | --- | --- | --- | --- | --- | --- | --- | --- | --- |
| CN1COCN(Cc2cnc(Cl)s2)/C1=N\[N+](=O)[O-] [TMX, thiamethoxam] | 53% | 50% | 27% | 3% | 0% | – | – | – | – | – | – | – | – | – | – |
| CNC(=O)Nc1ccc(S(=O)(=O)NC(=O)c2ccccc2OC)cc1 [Metcamifen, metcamifen] | – | – | – | – | – | did not reduce the amount of colchicine recovered | could be detected | increased | not increased | 69% | 18% | 62% | 24% | 51% | 23% |
